Results published in patent publication EP0551200A1, “Protein phosphatase inhibitors for use in therapy” (priority 1992, dated 1993).

Key:
Format in all cases: cell-based, human
27 hsp complex = assay: Phosphorylation of the 27 hsp complex in the cytosolic fraction of 32P-labeled fibroblasts
Procedure: Human fibroblasts prelabeled with [³²P]orthophosphate (1 mCi/ml) were incubated with increasing concentrations of OA or TNF. Cytosolic fractions were prepared from the cells and subjected to two-dimensional gel electrophoresis. a, control; b, 80 nM OA; c, 160 nM OA; d, 50 units/ml TNF; and e, 320 nM OA.
The fibroblasts were treated with 200 nM of okadaic acid for 0 min (a), 5 min (b), 15 min (c), or 30 min (d). Cytosolic fractions were prepared from the fibroblasts and analyzed by two-dimensional gel electrophoresis.
Radiolabeling of Cells and Cell Lysis - For labeling with [³²P]orthophosphate cells were plated onto 90 mm plastic tissue culture dishes and incubated for 3 days for the cells to become confluent. […]
Two-dimensional Gel Electrophoresis - The lyophilized fractions (each of approximately 12 µg) were subjected to isoelectric focusing for 18,000 V/h with pH 3-10 ampholytes using the Millipore Investigator two-dimensional electrophoresis system (Millipore). […] Molecular weight marker proteins from Sigma were detected by Coomassie Blue staining and marked on the autoradiogram. ³²P-Labeled 27 hsp complex prepared from human fibroblasts heat shocked at 43°C for 30 min was also used as a marker. […]

EGFR = assay: Phosphorylation of EGF receptor, immunoprecipitation from 32P-labeled fibroblasts; details: 250 nM, 15 min
Procedure: Phosphorylation of EGFR by TNF, IL-1, EGF, PDGF (indicated as PGF) and okadaic acid (OA). ³²P-Labeled cultures of fibroblast cells were treated with TNF (100 units/ml), IL-1 (100 units/ml), EGF (50 ng/ml), PDGF (32 ng/ml) or OA (250 nM) for 15 min. Control is indicated by 0. The EGFR was immunoprecipitated with anti-EGFR antibody (Oncogene Science, Manhasset, N.Y., US). The proteins were subjected to 7.5% SDS-PAGE and autoradiography.
IL-1, TNF, or Okadaic Acid Treatment Stimulate Phosphorylation of the EGF Receptor - One feature of TNF and IL-1 action is the transmodulation of the EGFR via phosphorylation. Okadaic acid was added to human fibroblasts to see if it can also mimic this effect of TNF and IL-1. ³²P-Labeled human fibroblasts were treated with ligand (TNF, IL-1, EGF, PDGF, or okadaic acid) for 15 min and extracted for analysis. The extracts were immunoprecipitated with anti-EGFR antibodies. The immunoprecipitated EGFR derived from variously treated fibroblasts was analyzed by SDS-PAGE and autoradiography.

c-abl = assay: Phosphorylation of cdc2 kinase substrate c-abl, immunoprecipitation; details: 50 units/ml TNF or 100 nM OA
Procedure: Where c-abl (top panel) or p53 (bottom panel) phosphorylation was measured, cells were treated for the times indicated with 50 units/ml TNF or 100 nM OA. Where RB (middle panel) phosphorylation was measured, cells were treated for 15 min with the indicated doses of TNF (in units/ml) or OA (in nM). Cell lysates were immunoprecipitated with antibodies to either c-abl, RB, or p53 (from Oncogene Science). The immunoprecipitated proteins were subjected to 6 or 10% SDS-PAGE and autoradiography. Note that in the middle panel, the lesser extent of RB phosphorylation observed with 500 nM OA as compared to 100 nM OA is due to the loading of about four times less amount of protein in the 500 nM OA than the 100 nM OA-treated sample to the gel. At either concentration of OA, the ratio of the hyperphosphorylated form of RB is higher than the hypophosphorylated form of RB.
Phosphorylation of cdc2 Kinase Substrates in Cells Treated with IL-1, TNF, or Okadaic Acid - It is noted from Fig. 1 (e and f) that the phosphorylation of myosin light chain and nucleolin are enhanced by TNF and okadaic acid treatment. Both proteins are known to be substrates of cdc2 kinase. In this connection, a question was raised as to whether other cdc2 kinase substrates which are known to be phosphorylated by okadaic acid treatment are also effected in TNF-treated human fibroblasts. […]

For C=C1[C@@H](O)[C@@H]2O[C@]3(CC[C@H](/C=C/[C@@H](C)[C@@H]4CC(C)=C[C@@]5(O[C@H](C[C@@](C)(O)C(=O)O)CC[C@H]5O)O4)O3)CC[C@H]2O[C@@H]1[C@@H](O)C[C@H](C)[C@H]1O[C@@]2(CCCCO2)CC[C@H]1C [okadaic acid], the “phosphorylation state of the 27 hsp complex (in words)” value (27 hsp complex; 200 nM, after 30 min) was “hyperphosphorylated”, the “concentration producing about the same increase in phosphorylation of the 27 hsp complex as 50 units/ml of TNF” value (27 hsp complex; 15 min) was 160 to 320 nM and the “stimulation of phosphorylation of the EGFR (in words)” value (EGFR) was “to an even greater extent than does TNF, IL-1, EGF or PDGF”. The “phosphorylation of c-abl (in words)” value (c-abl) was “enhanced the phosphorylation”.
